“Also recorded” adds a separate entry of the source. Where two headings read alike, the source gives them in different places.
Tests used:
[1] = tested on: Th17 cells; test: Th17 differentiation of mouse naive CD4+ T cells, IL-17/IL-17F intracellular staining; type: cell-based; conditions: for inhibition of TH17 differentiation (in words): 2-10 μM, in vitro culture; for IL-17 and IL-17F expression in Th17 cells (in words): FIG. 1
Method: T-cell Isolation and Differentiation—Mouse T cell differentiation was performed and analyzed by intracellular staining as described. […] The Journal of biological chemistry 286: 22707-22710 (2011); Wang, X., et al. Transcription of Il17 and Il17f is controlled by conserved noncoding sequence 2. Immunity 36: 23-31 (2012). Briefly, mouse naïve CD4^+ T cells (CD4^+CD25^−CD62L^hi-CD44^lo) were isolated from spleens and lymph nodes by FACS sorting. Th17 differentiation was performed with 15 ng ml^− IL-6 and 2.5 ng ml^− TGF-β in the presence of 1 μg ml^− anti-CD3 (plate bound) and 1 μg ml^− anti-CD28 (plate bound) for 4 days. When indicated, different concentrations of UA, KL001, other UA analogs or small molecules (dissolved in DMSO) were added at the beginning of Th17 differentiation. The mature Th17 cells were restimulated with 50 ng ml^− PMA (phorbol 12-myristate 13-acetate) and 500 ng ml^− inomycin in the presence of BD GolgiStop™ for 6 hrs, stained intracellularly for IL-17 and IL-17F, and then analyzed by flow cytometry.
UA and its analogs KL001 to KL005, 201702-1 to 201702-4, and 201509-1 to 201509-3 inhibit TH17 differentiation. Mouse naïve CD4+ T cells were cultured under Th17 polarizing condition in the presence of above chemicals (2-10 μM) or DMSO control (Ctrl) for 4 days and then restimulated for IL-17 and IL-17F staining (FIG. 1). […] The Journal of biological chemistry 286: 22707-22710 (2011), 2 μM UA inhibited ˜80% IL-17 expression and ˜50% IL-17F expression, both of which were reported to contribute TH17-mediated autoimmune diseases Yang, X. O., Chang, S. H., Park, H. et al. Regulation of inflammatory responses by IL-17F. The Journal of experimental medicine, 205: 1063-1075 (2008). […] (FIG. 1), whereas other UA analogs inhibited TH17 differentiation at a less degree (FIG. 1 and FIG. 6).

[2] = tested on: experimental autoimmune encephalomyelitis (EAE); test: MOG-induced EAE, preventative disease model; type: in vivo, mice; conditions: for IL-17 expression of T cells infiltrated into the central nerve system: 100 mg/kg i.p. every other day; for effect on EAE disease (in words): 100 mg/kg i.p. every other day after first MOG immunization
Method: (§1) MOG-induced Experimental Autoimmune Encephalomyelitis (EAE)—EAE induction were performed by immunizing mice twice with MOG35-55 peptide (amino acids 35-55; MEVGWYRSPFSROVHLYRNGK) emulsified in CFA followed by pertussis toxin injection with slight modifications, and analyzed as previously described. […] The Journal of biological chemistry 286: 22707-22710 (2011); Wang, X., et al. Transcription of Il17 and Il17f is controlled by conserved noncoding sequence 2. Immunity 36: 23-31 (2012). Briefly, the disease scores were assigned on a scale of 0-5 as follows: 0, none; 1, limp tail or waddling gait with tail tonicity; 2, wobbly gait; 3, hindlimb paralysis; 4, hindlimb and forelimb paralysis; 5, death.
The Journal of biological chemistry 286: 22707-22710 (2011).

[3] = tested on: experimental autoimmune encephalomyelitis (EAE); test: MOG-induced EAE, therapeutic disease model; type: in vivo, mice; conditions: ~250 mg/kg gavage twice daily from Day 9
Method: as §1
To test the therapeutic potential of KL001, EAE was first induced by MOG immunization and PTX injection as described.

[4] = tested on: imiquimod (IMQ)-induced psoriasis; test: IMQ-induced psoriasis, preventative disease model; type: in vivo, C57BL/6 mice; conditions: ~250 mg/kg gavage twice daily
Method: IMQ-induced psoriasis model—The mouse psoriasis model was induced according to previous described with minor modifications. van der Fits L, et al. (2009) Imiquimod-induced psoriasis-like skin inflammation in mice is mediated via the IL-23/IL-17 axis. J Immunol 182(9):5836-5845. Briefly, 7-9 weeks old female C57BL/6 mice were used to induce psoriasis. On day 0, the hair was removed from the dorsal skin of the mice after anaesthetizing with pentobarbital (˜0.2 ml/20 g body weight by i.p.). On day 1, psoriasis was induced […] by applying 62.5 mg 5% imiquimod cream to the dorsal skin after anaesthesia on a daily base. In the preventative disease model, KL001 (dissolved in 0.5% methylcellulose (MC)) or 0.5% MC (control group) was orally administrated into C57BL/6 mice by gavage at a dosage of ˜250 mg/kg body weight twice daily starting 2 days before induction of psoriasis (Day −2). The mice were then sacrificed on Day 5, and the skin tissues were then removed for H&E staining and mRNA expression analysis. […] The expression of Il17, Il17f and Rorc (encoding RORγt) were then quantified by realtime PCR and normalized to Actb gene by using the following primers: Actb, F: […]/R (SEQ ID NO.1): […] […]

[5] = tested on: Th17 cells; conditions: previous studies (Xu et al. 2011); read-out: IC50 in inhibiting Th17 differentiation; cited from earlier work
[6] = molecular target: STAT3 (Homo sapiens, UniProt P40763); conditions: previous studies; cited from earlier work
[7] = tested on: rodents; conditions: cited from earlier work
[8] = 2 μM, Th17 polarizing condition, 4 days

STAT3, sequence (P40763 whole entry, species assumed): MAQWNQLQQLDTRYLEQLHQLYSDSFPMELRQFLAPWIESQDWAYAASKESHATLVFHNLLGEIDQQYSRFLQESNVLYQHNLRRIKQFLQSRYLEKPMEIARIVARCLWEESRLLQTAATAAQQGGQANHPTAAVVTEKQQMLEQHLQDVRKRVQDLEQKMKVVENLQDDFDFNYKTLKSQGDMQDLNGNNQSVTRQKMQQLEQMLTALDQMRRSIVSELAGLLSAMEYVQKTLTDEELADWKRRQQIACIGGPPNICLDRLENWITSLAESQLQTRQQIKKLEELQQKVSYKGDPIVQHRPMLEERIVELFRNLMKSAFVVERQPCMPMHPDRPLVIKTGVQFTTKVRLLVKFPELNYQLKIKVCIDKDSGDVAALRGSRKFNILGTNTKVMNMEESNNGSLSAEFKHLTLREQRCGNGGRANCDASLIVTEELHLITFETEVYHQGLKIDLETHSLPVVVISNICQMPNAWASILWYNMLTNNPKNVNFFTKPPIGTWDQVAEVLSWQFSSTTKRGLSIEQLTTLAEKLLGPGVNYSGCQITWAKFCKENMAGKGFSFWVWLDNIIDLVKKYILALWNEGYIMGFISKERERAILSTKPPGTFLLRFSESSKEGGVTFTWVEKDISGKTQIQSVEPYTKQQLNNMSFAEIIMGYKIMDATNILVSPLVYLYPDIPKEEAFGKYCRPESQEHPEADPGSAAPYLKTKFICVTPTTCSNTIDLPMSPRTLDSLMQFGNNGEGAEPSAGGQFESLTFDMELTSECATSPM

Row | SMILES | inhibition of TH17 differentiation (in words) ([1]; 4 days) | IL-17 and IL-17F expression in Th17 cells (in words) [1] | IC50 ([1]; Mus musculus, CD4+ T, readout of IL-17 staining, titration, read-out: IC50 in inhibiting Th17 differentiation) [µM] | IL-17 expression of T cells infiltrated into the central nerve system [2] | effect on EAE disease (in words) [2] | effect on EAE disease (in words) [3] | reduction of average disease scores vs control group [3] [%] | psoriatic symptoms, redness and roughness of the skin (in words) [4] | expression of IL-17 in skin samples ([4]; mRNA) | inhibition of IL-17F expression [1, 8] [%] | inhibition of IL-17 expression [1, 8] [%] | IC50 [5] [µM] | concentration at which inhibitory activity on STAT3 was observed [6] | acute toxicity LD50 ([7]; intraperitoneal injection (Lee et al. 2010)) [mg/kg] | acute toxicity LD50 ([7]; oral administration (Lee et al. 2010)) [mg/kg]
1 | Cc1oc(=O)oc1COC(=O)[C@]12CC[C@@H](C)[C@H](C)[C@H]1C1=CC[C@@H]3[C@@]4(C)CC[C@H](O)C(C)(C)[C@@H]4CC[C@@]3(C)[C@]1(C)CC2 [KL001, (5-methyl-2-oxo-1,3-dioxol-4-yl)methyl (1S,2R,4aS,6aS,6bR,8aR,10S,12aR,12bR,14bS)-10-hydroxy-1,2,6a,6b,9,9,12a-heptamethyl-1,3,4,5,6,6a,6b,7,8,8a,9,10,11,12,12a,12b,13,14b-octadecahydropicene-4a(2H)-carboxylate] | comparable level to UA; also recorded: comparable efficacy with UA | inhibited | ~0.49 | significantly reduced | greater degree than UA; also recorded: ameliorated | significantly reduced the disease severity; also recorded: ameliorated | 50 | visually and greatly reduced; also recorded: ameliorated psoriatic symptoms | notably reduced | – | – | – | – | – | –
2 | C[C@H]1[C@H](C)CC[C@]2(C(=O)O)CC[C@]3(C)C(=CC[C@@H]4[C@@]5(C)CC[C@H](O)C(C)(C)[C@@H]5CC[C@]43C)[C@H]12 [UA, ursolic acid, reference compound] | inhibit | inhibited | – | significantly reduced | ameliorated | did not affect; also recorded: but not UA, ameliorated | – | – | – | ~50 | ~80 | 0.68 | higher than 25 μM | > 637 | 8330
